US7378387B2, “Method of suppressing immune response by reducing intracellular content of glutathione in macrophages and monocytes” (Ajinomoto Co., Inc., priority 1997, dated 2008)

Key:
[1] = tested on: peritoneal exudate cells (macrophages); experiment: Induction of oxidative or reductive macrophages by administration, monochlorobimane/ACAS (Example 9); type: in vivo, DBA/2 mice; details: for type of macrophages induced (monochlorobimane, ACAS): Day 1 and Day 2, cells harvested 20 hours later, 20 μg (NAC-OMe)2 or (NAC)2, 10 μg acetylgliotoxin, 2 mg NAC intraperitoneally, 40 μg dexamethasone subcutaneously
Experimental: This was clarified by harvesting peritoneal exudate cells 20 hours after the completion of the administration, adhering the cells to the plastic surface, then reacting the cells with 10 μM of monochlorobimane at 37° C. for 30 minutes, and analyzing the reaction product with ACAS. The increase in the amounts of oxidative macrophages can easily be determined visually from the fact that almost no reaction product with monochlorobimane is observed, namely, a gray or blue image is provided, and the increase in the amounts of reductive macrophages from the fact that a red or yellow image is provided respectively. […] Meanwhile, the same examination was conducted by harvesting peritoneal exudate cells after 20 hours of the administration of 2 mg of N-acetylcystine (NAC).

IL-12 = IL-12 production from macrophages induced through administration (Example 9, Table 1); type: in vivo, DBA/2 mice; details: LPS 100 ng/ml, IFNγ 100 units/ml
Experimental: The amount of IL-12 was determined through bioassay using cells of human T cell strain 2D6 (J. Leukocyte Biology, vol. 61, p. 346, 1997).
2D6 cells which had been incubated in an RPMI 1640 medium containing 500 pg/ml of recombinant human IL-12, 50 μM of 2-mercaptoethanol and 10% FCS (fetal calf serum) were moved to a tube, and centrifugally washed three times with the above-mentioned medium without IL-12 and cell density was adjusted to 1×10^5/ml. The cell suspension was added in an amount of 100 μl each to a 96-well flat bottom plate containing a sample serially diluted in advance with an RPMI 1640 medium containing 50 μM of 2-mercaptoethanol and 10% FCS in an amount of 100 μl each. Subsequently, the mixture was charged into a 5% […] incubator of 37° C., and incubated for 48 hours. For final 6 hours, ^3H-TdR was pulsed (a substance adjusted to 370 kBq/ml in an RPMI 1640 medium containing 50 μM of 2-mercaptoethanol and 10% FCS was added in an amount of 50 μl each). The cells a harvested, and the radioactivity was measured using a β counter (Matrix 96, supplied by Packard).
The increase in the amounts of oxidative macrophages can easily be determined visually from the fact that almost no reaction product with monochlorobimane is observed, namely, a gray or blue image is provided, and the increase in the amounts of reductive macrophages from the fact that a red or yellow image is provided respectively. […] Meanwhile, the same examination was conducted by harvesting peritoneal exudate cells after 20 hours of the administration of 2 mg of N-acetylcystine (NAC).
Thus, the peritoneal exudate adherent cells were incubated in the following manner, and the amounts of NO and IL-12 produced in the culture supernatant were measured. With respect to the amount of IL-6, the amount of IL-6 produced spontaneously in the absence of a stimulator was measured.
Cells: The peritoneal exudate adherent cells obtained by the stimulation, namely, the macrophages were added to a 96-well microplate in an amount of 1×10^5 cells/200 μl each.
Medium: Phenol red-free RPMI 1640: 200 μl/well
LPS: Lipopolysaccharide (made by Sigma Co.) (origin: E. coli) 100 ng/ml

[2] = tested on: spontaneous inflammatory bowel disease; experiment: Spontaneous inflammatory bowel disease in γc knock out mice (Example 13); type: in vivo; details: −/Y mice, 20 μg/h twice a week, 5 times in total; for survival rate, Day 31 / survival rate, Day 45: non-administration 33%; for occurrence rate of intestinal inflammation, Day 14 / occurrence rate of intestinal inflammation, Day 31: non-administration 83%; for occurrence rate of intestinal inflammation, Day 45: non-administration 100%
Source text: In wild-type normal littermates of γc knock out mice (genetic phenotypes +/+, +/Y), no inflammatory bowel disease is observed at all under ordinary SPF breeding conditions. However, in γc knock out mice (genetic phenotypes, −/−, −/+ and −/Y), inflammatory bowel diseases occur very of ten. With respect to homo-knock out mice with −/− and −/Y phenotypes, approximately 70% thereof are spontaneously accompanied with inflammatory bowel diseases within 4 months. Also with respect to mice with +/− phenotype, approximately 60% thereof are spontaneously accompanied therewith within 6 months. That is, intestinal shortening, bloody stool, diarrhea, loose passage, anal prolapse and colonal hypertrophy are observed.
On the basis of the findings mentioned above, the effect of inhibiting spontaneous progression of inflammatory bowel disease in γc knock out mice was examined with respect to human Crohn disease and ulcerative colitis models. Saline, (NAC-OMe)2 or (NAC)2 (20 μg/h) was administered twice a week, 5 times in total, to each of 6 γc knock out male mice with […] and 6 γc knock out male mice with −/Y genotype which were inclined to have oxidative MΦ. It was examined whether or not the intestinal inflammation spontaneously progressed in −/Y was inhibited. In case of (NAC-OMe)2, on Day 14 of the administration, the occurrence rate of the non-administration −/Y group and the administration −/Y group was 83% to 25%; on Day 31, the occurrence rate was 83% to 25%, and the survival rate was 33% to 100%; and on Day 45, the occurrence rate was 100% to 25%, and the survival rate was 33% to 75%. In case of (NAC)2, it was 30, 40, 100, 40, 75% respectively.

[3] = tested on: reductive glutathione in MΦ; experiment: GSH content in MΦ of JaK3 knock out mice by ACAS after free intake in city water (Example 6); type: in vivo; details: free intake of city water containing 1 mg/ml, 24 days
Experimental: Three-hundred microliters of a cell suspension adjusted concentration of 3×10^5 cells/ml in an RPMI 1640 medium (phenol red-free) were charged into a chambered coverglass (#136439, supplied by Nunc), and incubated at 37° C. for 2 hours using a CO2 incubator. The culture solution was washed with the medium, and 300 μl of monochlorobimane (supplied by Molecular Plobe) adjusted to 10 μM in the same medium were added thereto. The mixture was charged into a CO2 incubator of 37° C., and the reaction was conducted for 30 minutes. The fluorescent intensity was measured with ACAS. In ACAS, a UV laser was used.
Macrophages (MΦ) were prepared from knock out mice deficient in a molecule participating in a signal transduction system from a receptor, and the function of the redox system was analyzed. […] Methods applied in Example 2 was repeated. JaK3 knock out mice were divided into three groups. A control group was a group of usual city water free-intake. An NAC group was a group of free intake of city water containing 1 mg/ml of NAC. A GSH-OEt group was a group of free intake of city water containing 1 mg/ml of GSH-OEt. […]
Peritoneal cells of knock out mice which had undergone the respective treatments were harvested, and the GSH content in the cells was analyzed using ACAS with MCB. […]

| Structure (SMILES) | type of macrophages induced (monochlorobimane, ACAS) [1] | induction of oxidative macrophages on ACAS ([1]; intraperitoneally 20 μg/0.5 ml/h each, twice a week for three weeks, 9-11 weeks of age) | IL-12, amount produced relative to that of control group (IL-12) | survival rate, Day 31 [2] | survival rate, Day 45 [2] | occurrence rate of intestinal inflammation, Day 14 [2] | occurrence rate of intestinal inflammation, Day 31 [2] | occurrence rate of intestinal inflammation, Day 45 [2] | content of reductive glutathione in MΦ in comparison with control mice [3] |
| --- | --- | --- | --- | --- | --- | --- | --- | --- | --- |
| COC(=O)[C@H](CSSC[C@H](NC(C)=O)C(=O)OC)NC(C)=O [(NAC-OMe)2, N,N′-diacetylcystine dimethyl ester] | Oxidative macrophages were induced | induction of oxidative macrophages was confirmed | 11% | 100% | 75% | 25% | 25% | 25% | – |
| CC(=O)N[C@@H](CSSC[C@H](NC(C)=O)C(=O)O)C(=O)O [(NAC)2, N,N′-diacetylcystine] | Oxidative macrophages were induced | – | 15% | 100% | 75% | 30% | 40% | 40% | – |
| CCOC(=O)CNC(=O)[C@H](CS)NC(=O)CC[C@H](N)C(=O)O [GSH-OEt, glutathione monoethyl ester] | – | – | – | – | – | – | – | – | markedly increased |
| CC(=O)N[C@@H](CS)C(=O)O [NAC, N-acetylcysteine, reference compound] | reductive macrophages were induced | – | 920% | – | – | – | – | – | markedly increased |
